Tested on: BaF3-FL-EGFR-T790M-L858R
Assay: Cell growth (Cell Titer-Glo viability), BaF3-FL-EGFR-T790M-L858R
Assay type: cell-based
Settings: Mus musculus; BaF3-FL-EGFR-T790M-L858R (EGFR T790M/L858R mutant kinase), 72 hrs
Protocol: By testing the effect of the novel kinase inhibitors on the proliferation of cancer cells, the selectivity of the compounds of the present disclosure in inhibiting the proliferation of cancer cells was further assessed. […]
The number of viable cells was determined quantitatively by a microplate reader using Cell Titer-Glo® (Promega, US) chemiluminescence cell viability assay kit.

C=CC(=O)Nc1cc(Nc2ncc(Cl)c(Nc3ccccc3S(=O)(=O)C(C)C)n2)c(OC)cc1N1CCCN(C)CC1 [Compound 10, N-(5-(5-chloro-4-(2-(isopropylsulfonyl)phenylamino)pyrimidin-2-ylamino)-4-methoxy-2-(4-methyl-1,4-homopiperazin-1-yl)phenyl)acrylamide] gave a GI50 of 2 nM.

Reference: patent publication US10350210B2, “EGFR and ALK dual inhibitor” (PRECEDO PHARMACEUTICALS CO., LTD, priority 2015, dated 2019)
